Test results published in paper PMC5571359, “Screening the Medicines for Malaria Venture Pathogen Box across Multiple Pathogens Reclassifies Starting Points for Open-Source Drug Discovery” (Antimicrobial Agents and Chemotherapy, 2017).
Read-outs that look alike come from different tables or passages of the source.

Tests used:
[1] = test system: L. donovani MHOM/IN/80/DD8 intracellular amastigotes; experiment: Leishmania donovani intracellular amastigote assay in THP-1 cells; type: cell-based
[2] = test system: T. cruzi intracellular amastigotes; experiment: Intracellular anti-Trypanosoma cruzi image-based assay (amastigotes); type: cell-based
[3] = test system: NF54-pfs16-LUC-GFP stage IV gametocytes; experiment: Plasmodium falciparum late stage gametocyte (LSG) image-based assay; type: cell-based; conditions: for IC50: Plasmodium falciparum
3T3 host cells = experiment: T. cruzi assay, activity against 3T3 host cells; type: cell-based; conditions: reference compound set; IA = inactive at 16.4 μM
In short: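 3T3 cells were seeded on collagen-coated plates, incubated 24 h at 37 °C, infected with T. cruzi at MOI 5:1, and washed free of extracellular parasites after a further 24 h. Following 48 h compound exposure, cells were fixed, stained with Hoechst 33342 and HCS CellMask Green, and imaged by high-content analysis.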

[4] = test system: Plasmodium falciparum 3D7 asexual blood stage; experiment: microbe, parasite or virus in culture
[5] = HEK293 resazurin cell cytotoxicity assay; conditions: human
[6] = test system: T. b. brucei 427 bloodstream trypanosomes; experiment: T. b. brucei resazurin viability assay; type: cell-based, Trypanosoma brucei brucei; conditions: for IC50: Trypanosoma brucei
HEK293 cells [7] = experiment: HEK293 resazurin cell cytotoxicity assay
P. falciparum ABS = conditions: cited from earlier work; for EC50: ChEMBL Data, read-out: TCMDC (ref 93) EX50; for IC50: Pf 3D7, ref Pathogen Box supporting information, read-out: Pf 3D7 Pbox IC50
Kinase CDPK1 = biological target: Kinase CDPK1; parameters: method as in earlier work; conditions: ChEMBL Data; read-out: CROWTHER ref 101) Kinase CDPK1 IC50; cited from earlier work
liver stage = conditions: liver stage; ref Pathogen Box supporting information; read-out: LIVER STAGE Pbox IC50; cited from earlier work
HepG2 = conditions: cited from earlier work; for CC50: read-out: HepG2 PBox CC50 µM
[8] = test system: P. falciparum stage V gametocytes; conditions: stage V gametocytes; ref Pathogen Box supporting information; read-out: PF stage V GAMS PBox IC50; cited from earlier work
[9] = test system: Plasmodium falciparum 3D7 asexual blood stage
[10] = test system: L. infanium (macrophages); parameters: method as in Pbox supporting information; conditions: ref Pbox supporting information; cited from earlier work
[11] = test system: L. donovani axenic amastigotes; parameters: method as in PBox supporting information; conditions: ref PBox supporting information; cited from earlier work
[12] = test system: T. cruzi C4 β-galactosidase reporter parasite in MRC 5SV2 host cells; conditions: ref Pbox supporting information; read-out: T. cruzi Pbox IC50; cited from earlier work
T. brucei brucei = conditions: ref Pbox supporting information; read-out: T.b. brucei Pbox IC50; cited from earlier work
T. brucei rhodesiense = conditions: ref Pbox supporting information; read-out: T .b. rohdensie Pbox IC50; cited from earlier work
infected PMM = test system: infected PMM; parameters: method as in Pbox supporting information; conditions: ref Pbox supporting information, read-out: Toxicity on infected PMM Pbox IC50; cited from earlier work
L. major = test system: L. major; parameters: method as in Pbox supporting information; conditions: ref Pbox supporting information; cited from earlier work
[13] = test system: L. donovani (macrophages); parameters: method as in Pbox supporting information; conditions: ref Pbox supporting information; cited from earlier work
HEK293 cells [14] = test system: HEK293 cells
[15] = test system: Plasmodium cGMP-dependent protein kinase (PfPKG); parameters: method as in PMID 16325279, PMID 20643897; conditions: cited from earlier work
barber's pole worm = test system: barber's pole worm; parameters: method as in PMID 27524698; conditions: cited from earlier work
[16] = test system: L. infanium (macrophages); parameters: method as in Pathogen Box supporting information; conditions: ref Pathogen Box supporting information, read-out: L. infanium (macrophages) Pbox IC50; cited from earlier work
[17] = Leishmania donovani, THP-1, read-out: IC50 L. donovani (Discovery Biology), PBox compounds, intracellular amastigotes
[18] = Trypanosoma cruzi, 48 h, read-out: IC50 T. cruzi (Discovery Biology)
[19] = NF54, read-out: Antiplasmodial IC50 (GAM / LSG), PBox compounds, stage IV gametocytes, single determination
[20] = 3D7, read-out: Antiplasmodial IC50 (ABS), PBox compounds, P. falciparum 3D7
[21] = Homo sapiens, HEK293, read-out: HEK % Inhibition 20uM/IC50 Discovery Biology
[22] = read-out: IC50 T. brucei brucei (Discovery Biology)
[23] = NF54, read-out: Pf Stage IV GAMS Discovery Biology IC50 µM, stage IV gametocytes, Discovery Biology
[24] = 3D7, read-out: Pf 3D7 Discovery Biology IC50 µM, P. falciparum 3D7 asexual blood stage, Discovery Biology
[25] = HepG2 CC50, ref Pathogen Box supporting information
[26] = HepG2 cytotoxicity, ref PBox supporting information
[27] = ref PBox supporting information
[28] = Leishmania donovani, THP-1, intracellular amastigotes, Discovery Biology, some values carry an asterisk, read-out: L, donovani Discovery Biology IC50 µM
[29] = Trypanosoma cruzi, intracellular amastigotes, Discovery Biology, read-out: T cruzi Discovery Biology IC50

CC(C)(C)[C@H]1CC[C@H](CC2=C(O)C(=O)c3ccccc3C2=O)CC1 [Buparvaquone, reference compound]
IC50 ([1]; Leishmania donovani, THP-1, read-out: IC50 L. donovani n = 1, reference compound set, first test, IA = inactive at 20 μM): 1.88 µM | inhibition at 20 µM ([1]; Leishmania donovani, THP-1, reference compound set, second test, 20 μM, read-out: percent inhibition at the top screening dose, L. donovani n = 2): 60% | IC50 ([2]; Trypanosoma cruzi, reference compound set, IA = inactive at 16.4 μM, read-out: IC50 T. cruzi intracellular amastigotes): 4.92 µM | Emax ([2]; Trypanosoma cruzi, reference compound set, read-out: T. cruzi Emax (maximal % inhibition plateau in dose response curve)): 98.5% | IC50 ([3]; NF54, read-out: IC50 P. falciparum NF54 LSG, reference compound set, 11-point dose response, IA = inactive at 20 μM): 5.3 µM | IC50 (3T3 host cells): > 16400 nM | IC50 ([4]; 3D7, read-out: IC50 P. falciparum 3D7 ABS, reference compound set, 11-point dose response, IA = inactive at 20 μM): 0.14 µM | IC50 at 72 h ([5]; HEK293 cells): > 20000 nM | IC50 ([6]; reference compound set, IA = inactive at 20 μM, read-out: IC50 T. brucei brucei trypomastigotes): > 20000 nM

c1ccc(-c2nc(NC3CCCCC3)cc(C3CC3)n2)nc1 [MMV021013]
IC50 [1, 17]: 1.48 µM | IC50 [2, 18]: 1.67 µM | IC50 [3, 19]: 0.19 µM | IC50 [4, 20]: 0.46 µM | inhibition at 20 µM (HEK293 cells [7]; [21]): 83% | selectivity ratio at 72 h [5]: > 5 | EC50 (P. falciparum ABS; TCMDC set, P. falciparum): 730 nM | IC50 [6, 22]: 3510 nM

Nc1ncc(-c2cn[nH]c2)cc1-c1nc2cc(Cl)cnc2[nH]1 [MMV023370]
EC50 (P. falciparum ABS; TCMDC): 920 nM | IC50 (P. falciparum ABS): 400 nM | IC50 (Kinase CDPK1): 280 nM

CN(C(=O)c1cc2c(-c3cncnc3)cccc2[nH]1)c1ccccc1 [MMV024443]
IC50 [3, 23]: 2.71 µM | IC50 [4, 24]: 1.69 µM | IC50 (liver stage): 1020 nM | CC50 (HepG2; [25]): > 10 µM | IC50 [8]: 570 nM | EC50 (P. falciparum ABS; TCMDC): 630 nM | IC50 (P. falciparum ABS): 720 nM | IC50 (Kinase CDPK1): 270 nM

CC(C)(CN)c1nc(-c2ccc(Cl)c(O)c2)c(-c2ccnc(N)n2)[nH]1 [MMV030734]
IC50 (liver stage): 320 nM | CC50 (HepG2; [25]): > 10 µM | EC50 (P. falciparum ABS; TCMDC): 980 nM | IC50 (P. falciparum ABS): 410 nM | IC50 (Kinase CDPK1): 7 nM

CCOC(=O)c1c(NC(=O)c2c(F)c(F)c(F)c(F)c2F)sc(C(N)=O)c1C [MMV153413]
activity in the Discovery Biology ABS assay [9]: not ABS activity | IC50 [3, 19]: 1.06 µM | CC50 (HepG2; [26]): 4.2 µM | selectivity ratio at 72 h [5]: > 5 | IC50 [6, 22]: 2990 nM

Cc1nc(-c2ccccn2)nc(N2CCC(Cc3ccccc3)C2)c1Cl (centres unmarked) [MMV659004]
IC50 [10]: 4030 nM | IC50 [3, 19]: 0.67 µM | IC50 [4, 20]: 1.86 µM | HepG2 PBox CC20 (HepG2; [27]): 10200 nM | IC50 [11]: 30 nM | IC50 [12]: 970 nM | IC50 (T. brucei brucei): 6610 nM | IC50 (T. brucei rhodesiense): 5620 nM | IC50 (infected PMM): 16700 nM | IC50 (L. major): 8960 nM | IC50 (HEK293 cells [7]; [21]): > 20000 nM | IC50 [13]: 4200 nM

CC(C)(C)OC(=O)N1CCN(c2cc(-c3ccc(Oc4ccccc4)cc3)n[nH]2)CC1 [MMV676057]
IC50 [10]: 10200 nM | HepG2 PBox CC20 (HepG2; [27]): 4000 nM | IC50 [11]: 1320 nM | IC50 [12]: 9370 nM | IC50 (T. brucei brucei): 3890 nM | IC50 (T. brucei rhodesiense): 2700 nM | IC50 (infected PMM): 20000 nM | IC50 (L. major): 13000 nM | IC50 [13]: > 10000 nM

Nc1nc2ccc(-c3cncc(Oc4ccc(F)cc4)c3)cc2[nH]1 [MMV687248]
IC50 [2, 18]: 4 µM | IC50 [4, 24]: 1.52 µM | CC50 (HepG2; [26]): 31.5 µM | selectivity ratio at 72 h [5]: > 5 | selectivity index (SI) T. brucei brucei versus HEK293 ([6]; HEK293): > 20 | selectivity index (SI) T. brucei brucei versus HEPG2 ([6]; HEPG2 (PBox data)): > 20 | IC50 [6, 22]: 1050 nM

CC(C)=CCC/C(C)=C/CNCCNC1C2CC3CC(C2)CC1C3 (centres unmarked) [MMV687273, SQ-109]
activity against L. donovani in the Discovery Biology assay [1]: active | IC50 [1, 17]: 3.47 µM | activity against T. cruzi in the Discovery Biology assay [2]: active | IC50 ([2]; Trypanosoma cruzi, read-out: T cruzi Discovery Biology IC50 µM): 5.39 µM | activity in the Discovery Biology ABS assay [9]: active | IC50 [3, 23]: 1.89 µM | IC50 [4, 24]: 1.43 µM | IC50 ([4]; 3D7, read-out: activity against P. falciparum (novel antiplasmodial actives of the tuberculosis set)): < 2 µM | CC50 (HepG2; [26]): 7.1 µM | selectivity ratio at 72 h [5]: > 5 | activity against T. brucei brucei in the Discovery Biology assay [6]: active | IC50 [6, 22]: 2280 nM

Cc1cc(C2=NOC(c3cc(Cl)c(F)c(Cl)c3)(C(F)(F)F)C2)ccc1C(=O)NCc1ccc2c(c1)C(C)(C)OB2O (centres unmarked) [MMV687776]
selectivity index (SI) T. cruzi versus HEK293 ([2]; HEK293): > 8 | selectivity index (SI) T. cruzi versus HEPG2 ([2]; HEPG2 (PBox data)): 4.3 | IC50 ([2]; Trypanosoma cruzi, PBox compounds, intracellular amastigotes, 48 h exposure, read-out: IC50 T. cruzi (Discovery Biology)): 2.39 µM | HepG2 PBox CC20 μMc (HepG2): 10900 nM | IC50 (HepG2): 10900 nM | activity in the HEK293 cytotoxicity assay (HEK293 cells [14]): did not display activity

CN1CCC(c2cc(-c3ccncc3)c(-c3ccc(F)cc3)[nH]2)CC1 [MMV688703]
activity in the Discovery Biology stage IV gametocyte (LSG) assay [3]: does not affect | IC50 [4, 20]: 3.16 µM | IC50 [15]: 8.5 nM

CCc1nn(C)c(C(=O)NCc2ccc(Oc3ccc(C)cc3)cc2)c1Cl [MMV688934, Tolfenpyrad]
IC50 [10]: 45600 nM | IC50 [12]: 5350 nM | IC50 (T. brucei brucei): 33000 nM | activity against the helminth barber's pole worm (barber's pole worm): activity | IC50 (T. brucei rhodesiense): 20400 nM

CC(c1cc(Cl)cc(Cl)c1)N(C)c1ncc2c(N)nc(N)nc2n1 (centres unmarked) [MMV689437]
activity against L. donovani in the Discovery Biology assay [1]: demonstrated activity | IC50 [1, 28]: 5.73 µM | activity against T. cruzi in the Discovery Biology assay [2]: demonstrated activity | IC50 [2, 29]: 0.19 µM | activity in the Discovery Biology ABS assay [9]: not active | activity in the HEK293 cytotoxicity assay (HEK293 cells [7]): no activity | activity against T. brucei brucei in the Discovery Biology assay [6]: not active | IC50 [16]: 540 nM

COc1ccc(Oc2ccc([C@@H](C)N(C)c3ncc4c(N)nc(N)nc4n3)cc2)cc1 [MMV690102]
activity against L. donovani in the Discovery Biology assay [1]: demonstrated activity | IC50 [1, 28]: 0.46 µM | activity against T. cruzi in the Discovery Biology assay [2]: demonstrated activity | IC50 [2, 29]: 0.09 µM | activity in the Discovery Biology ABS assay [9]: not active | activity in the HEK293 cytotoxicity assay (HEK293 cells [7]): no activity | activity against T. brucei brucei in the Discovery Biology assay [6]: not active | IC50 [16]: 30 nM

C[C@H](c1ccc2c(c1)CCCC2)N(C)c1ncc2c(N)nc(N)nc2n1 [MMV690103]
activity against L. donovani in the Discovery Biology assay [1]: demonstrated activity | IC50 [1, 28]: 5.2 µM | activity against T. cruzi in the Discovery Biology assay [2]: demonstrated activity | IC50 [2, 29]: 0.1 µM | activity in the Discovery Biology ABS assay [9]: not active | activity in the HEK293 cytotoxicity assay (HEK293 cells [7]): no activity | activity against T. brucei brucei in the Discovery Biology assay [6]: not active | IC50 [16]: 470 nM
